Numbers after ± are expanded uncertainties.
Assay: xn = mol fraction of the nth substance listed
Conditions: 101 kPa, Liquid; for viscosity: Capillary tube (Ostwald / Ubbelohde) method; for mass density: Vibrating tube method

CCCCCCCC [octane] + CCCO
Conditions	mass density [kg/m3]	viscosity [mPa·s]
293.15 K, x1 = 0.0997	782.97 ± 0.76	1.692 ± 0.021
293.15 K, x1 = 0.1999	766.37 ± 0.62	1.356 ± 0.016
293.15 K, x1 = 0.3	752.87 ± 0.51	1.092 ± 0.013
293.15 K, x1 = 0.3997	741.8 ± 0.43	0.934 ± 0.011
293.15 K, x1 = 0.4993	732.43 ± 0.38	0.798 ± 0.01
293.15 K, x1 = 0.602	724.19 ± 0.33	0.703 ± 0.01
293.15 K, x1 = 0.6991	717.48 ± 0.3	0.632 ± 0.009
293.15 K, x1 = 0.7994	711.55 ± 0.26	0.587 ± 0.009
293.15 K, x1 = 0.9	706.48 ± 0.23	0.556 ± 0.009
293.15 K, x1 = 1	702.54 ± 0.15	0.545 ± 0.009
298.15 K, x1 = 0.0997	778.9 ± 0.76	1.508 ± 0.019
298.15 K, x1 = 0.1999	762.25 ± 0.62	1.216 ± 0.015
298.15 K, x1 = 0.3	748.72 ± 0.51	0.991 ± 0.012
298.15 K, x1 = 0.3997	737.62 ± 0.43	0.854 ± 0.011
298.15 K, x1 = 0.4993	728.24 ± 0.38	0.734 ± 0.01
298.15 K, x1 = 0.602	719.99 ± 0.33	0.65 ± 0.009
298.15 K, x1 = 0.6991	713.3 ± 0.3	0.589 ± 0.009
298.15 K, x1 = 0.7994	707.39 ± 0.26	0.55 ± 0.009
298.15 K, x1 = 0.9	702.35 ± 0.23	0.523 ± 0.009
298.15 K, x1 = 1	698.49 ± 0.15	0.513 ± 0.009
303.15 K, x1 = 0.0997	774.8 ± 0.77	1.352 ± 0.017
303.15 K, x1 = 0.1999	758.1 ± 0.62	1.097 ± 0.014
303.15 K, x1 = 0.3	744.53 ± 0.51	0.899 ± 0.012
303.15 K, x1 = 0.3997	733.4 ± 0.44	0.777 ± 0.01
303.15 K, x1 = 0.4993	724.01 ± 0.38	0.675 ± 0.01
303.15 K, x1 = 0.602	715.77 ± 0.33	0.603 ± 0.009
303.15 K, x1 = 0.6991	709.09 ± 0.3	0.55 ± 0.009
303.15 K, x1 = 0.7994	703.2 ± 0.26	0.515 ± 0.009
303.15 K, x1 = 0.9	698.19 ± 0.23	0.491 ± 0.009
303.15 K, x1 = 1	694.44 ± 0.16	0.485 ± 0.009
308.15 K, x1 = 0.0997	770.67 ± 0.77	1.211 ± 0.015
308.15 K, x1 = 0.1999	753.91 ± 0.62	0.992 ± 0.013
308.15 K, x1 = 0.3	740.3 ± 0.52	0.817 ± 0.011
308.15 K, x1 = 0.3997	729.15 ± 0.44	0.712 ± 0.01
308.15 K, x1 = 0.4993	719.75 ± 0.38	0.623 ± 0.009
308.15 K, x1 = 0.602	711.51 ± 0.33	0.56 ± 0.009
308.15 K, x1 = 0.6991	704.85 ± 0.3	0.514 ± 0.009
308.15 K, x1 = 0.7994	698.98 ± 0.26	0.484 ± 0.009
308.15 K, x1 = 0.9	694.02 ± 0.23	0.463 ± 0.009
308.15 K, x1 = 1	690.37 ± 0.16	0.459 ± 0.009
313.15 K, x1 = 0.0997	766.5 ± 0.77	1.09 ± 0.014
313.15 K, x1 = 0.1999	749.69 ± 0.62	0.898 ± 0.012
313.15 K, x1 = 0.3	736.04 ± 0.52	0.745 ± 0.01
313.15 K, x1 = 0.3997	724.85 ± 0.44	0.653 ± 0.01
313.15 K, x1 = 0.4993	715.44 ± 0.38	0.576 ± 0.009
313.15 K, x1 = 0.602	707.21 ± 0.33	0.52 ± 0.009
313.15 K, x1 = 0.6991	700.57 ± 0.3	0.481 ± 0.009
313.15 K, x1 = 0.7994	694.73 ± 0.26	0.455 ± 0.009
313.15 K, x1 = 0.9	689.81 ± 0.23	0.436 ± 0.009
313.15 K, x1 = 1	686.29 ± 0.16	0.433 ± 0.009
318.15 K, x1 = 0.0997	762.28 ± 0.77	0.984 ± 0.013
318.15 K, x1 = 0.1999	745.41 ± 0.63	0.817 ± 0.011
318.15 K, x1 = 0.3	731.72 ± 0.52	0.68 ± 0.01
318.15 K, x1 = 0.3997	720.51 ± 0.44	0.605 ± 0.009
318.15 K, x1 = 0.4993	711.09 ± 0.38	0.534 ± 0.009
318.15 K, x1 = 0.602	702.87 ± 0.33	0.485 ± 0.009
318.15 K, x1 = 0.6991	696.25 ± 0.3	0.451 ± 0.009
318.15 K, x1 = 0.7994	690.45 ± 0.26	0.427 ± 0.009
318.15 K, x1 = 0.9	685.58 ± 0.23	0.412 ± 0.008
318.15 K, x1 = 1	682.19 ± 0.16	0.412 ± 0.008
323.15 K, x1 = 0.0997	758.02 ± 0.78	0.89 ± 0.012
323.15 K, x1 = 0.1999	741.08 ± 0.63	0.742 ± 0.011
323.15 K, x1 = 0.3	727.35 ± 0.52	0.623 ± 0.01
323.15 K, x1 = 0.3997	716.12 ± 0.44	0.554 ± 0.009
323.15 K, x1 = 0.4993	706.7 ± 0.38	0.496 ± 0.009
323.15 K, x1 = 0.602	698.49 ± 0.33	0.452 ± 0.009
323.15 K, x1 = 0.6991	691.9 ± 0.3	0.423 ± 0.009
323.15 K, x1 = 0.7994	686.13 ± 0.26	0.403 ± 0.008
323.15 K, x1 = 0.9	681.32 ± 0.23	0.389 ± 0.008
323.15 K, x1 = 1	678.08 ± 0.16	0.392 ± 0.008

From the NIST ThermoML archive (doi:10.1021/je4004806)
